How the values were obtained:
NamPT = NamPT (Homo sapiens (Human), UniProt P43490); assay: Measurement of NamPT inhibitory ability IC50 (NamPT colorimetric assay kit, Abcam ab221819); type: biochemical; details: NamPT recombinant protein, WST-1 absorbance at 450 nm; class key in μM
Description: To test the effect of the compound prepared in each Example on the substrate decomposition rate (Vmax/min) mediated by NamPT enzyme, IC50 was calculated. In this experiment, the NamPT colorimetric assay kit (ab221819) produced by Abcam was used, and Graph prism software was used for IC50 calculation. PRPP, ATP, NMNAT1, NamPT recombinant proteins, and various concentrations of the compound of each Example (half-log step dilution from 100 μM) were added to nicotinamide to synthesize nicotinamide adenine dinucleotide (NAD) from the nicotinamide, and a total of 60 μL of the reaction solution was reacted at room temperature for 1 hour. WST-1 formazan converted by NAD generated by adding WST-1 was measured. The result of the reaction was obtained by the following formula by measuring absorbance using EnVision2105 (PerkinElmer) at 450 nm for 60 minutes at 2-minute intervals.
In Mathematical Formula 1, T1 and T2 are arbitrary times, and A1 and A2 represent the absorbance measured at T1 and T2 at 450 nm, respectively.
The results of measuring the NamPT inhibition activity of the compound of each Example obtained through the above experiment are shown in Table 1 in the unit of IC50 (nM), and the result values are expressed as follows.

[1] = system: NAPRT negative lung cancer cell lines (H322, H661, H1155); assay: Proliferation inhibition on NAPRT negative lung cancer cell lines (CellTiter-Glo); type: cell-based; details: 72 hours
Description: (§1) A compound showing a low IC50 value was selected from the compounds of the above Examples and treated an NAPRT positive or negative lung cancer cell line with various concentrations, and then the change in cell viability for each cell line was measured. The results are presented in a graph (a few materials known as NamPT inhibitors were used as controls). A total of 9 cancer cells lines (three NAPRT negative cell lines: H322, H661, and H1155; and six NAPRT positive cell lines: H1993, H2122, H2030, H1975, H1299, and HBEC30) were used. 5% fetal bovine serum (Gibco, US) and 1% penicillin/streptomycin (Gibco) were added to a medium, and the cells were cultured in a 37° C. constant temperature incubator containing 5% CO2. For compound treatment, each type of cells were seeded at 3×10^3 cells/well in a 96-well plate (Corning) and then incubated in a 37° C. constant temperature incubator containing 5% CO2 for 18 hours. […] Afterwards, the cells were cultured in an incubator containing 5% CO2 at 37° C. for 72 hours. To confirm the effect of inhibiting the proliferation of cancer cells, a CellTiter-Glo Luminescent Cell Viability Assay (Promega) was used. After treating the cells with 10 μL of CellTiter-Glo luciferase reagent and leaving them for 15 minutes at room temperature, the luminescence of each well was measured using EnVision2105 (PerkinElmer). The change in cell viability by the compound diluted at the concentration of each step was converted into a relative % value for the amount of luminescence shown by DMSO treatment. EC50 is expressed as the concentration of each compound that induces 50% of the maximum luminescence level.
(§2) The results of measuring the proliferation inhibition ability of the compound of each Example on nine types of lung cancer cell lines, obtained through the above experiment, are shown in Table 2 in the unit of EC50 (μM). The resulting values are expressed as follows.

[2] = system: NAPRT positive cell lines (H1993, H2122, H2030, H1975, H1299, HBEC30); assay: Proliferation inhibition on NAPRT positive lung cancer cell lines (CellTiter-Glo); type: cell-based; details: 72 hours
Description: as §1, §2

[3] = system: NAPRT-negative gastric cancer cell line HGC27; assay: NAPRT-negative cancer cell xenograft model (% tumor growth inhibition); type: in vivo; details: 50 mg/kg, orally once a day from day 1 to day 21, HGC27 xenograft in BALB/c nude mice
Text: Based on the effect of inhibiting proliferation limited to NAPRT-negative cancer cell lines according to the experiment of the proliferation inhibitory effect (EC50) on NAPRT-negative cancer cell lines, the pharmacological effect in a xenograft model using NAPRT-negative cancer cell lines was verified. Five-week-old female BALB/c nude mice were purchased and used in the experiment after acclimation for one week. The cancer cells used in the experiment were a NAPRT-negative gastric cancer cell line HGC27, and cultured in […] medium (Gibco) to which 5% Fetal Bovine Serum (Gibco, US) and 1% penicillin/streptomycin (Gibco) were added. HGC27 was suspended in PBS (Welgene) and transplanted to have 5×10^6 cells into each mouse. After adding Matrigel in the same value, tumors were induced by subcutaneous injection into the right flank using a 1 mL syringe. After 3 weeks of breeding, when the average tumor size was 100 to 150 mm^3, mice were randomly divided into groups of 7 and administered each compound. The compound was prepared in an excipient (0.5% DMSO/2% Tween 80/20% PEG 400/20% b-HPCD in 77.5% DW) as an agent for oral administration, and administered orally once a day from day 1 to day 21 to the mouse model in which a tumor was generated. From day 1 to day 21, the body weight was measured once daily, and the tumor size was measured three times a week. The tumor size was measured using a caliper and calculated using the following formula.
In Mathematical Formula 2, W is a length, and d is a width.
On day 21, all animals were euthanized, blood samples were collected, and tumors were removed. To evaluate blood toxicity, blood was collected from an EDTA-containing blood collection tube, and subjected to a general blood test (complete blood count, CBC) and a blood biochemical test. Isolated tumors were weighed after photographing and a portion was used to measure NAD to verify the on-target efficacy of the compound. To measure NAD, a NAD/NADH Quantitation Colorimetric Kit (K337) produced by BioVision was used.
The pharmacological effect of each compound in the NAPRT-negative cancer cell xenograft models, obtained in this experiment, is shown in Table 3 in the unit of % TGI (tumor growth inhibition).

Chain of NamPT (P43490 whole entry): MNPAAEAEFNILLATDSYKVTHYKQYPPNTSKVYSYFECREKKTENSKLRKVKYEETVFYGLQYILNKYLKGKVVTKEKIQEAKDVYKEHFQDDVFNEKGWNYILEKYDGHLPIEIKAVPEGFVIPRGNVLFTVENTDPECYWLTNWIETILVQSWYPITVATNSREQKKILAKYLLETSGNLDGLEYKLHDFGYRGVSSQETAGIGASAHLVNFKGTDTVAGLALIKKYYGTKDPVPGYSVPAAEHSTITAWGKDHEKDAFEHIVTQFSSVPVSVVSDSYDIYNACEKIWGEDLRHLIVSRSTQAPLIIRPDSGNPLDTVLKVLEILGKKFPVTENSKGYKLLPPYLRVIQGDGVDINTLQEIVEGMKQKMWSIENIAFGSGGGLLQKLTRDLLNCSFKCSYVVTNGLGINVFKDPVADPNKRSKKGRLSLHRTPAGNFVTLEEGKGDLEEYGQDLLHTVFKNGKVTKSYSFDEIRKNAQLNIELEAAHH

SMILES | IC50 (NamPT) [µM] | EC50 [1] [µM] | EC50 [2] [µM] | % TGI (Tumor Growth inhibition) [3] [%]
O=C(NCc1ccc(-c2nc3ccccc3o2)cc1)c1cnc2nccn2c1 [Example 2, N-[[4-(1,3-benzoxazol-2-yl)phenyl]methyl]imidazo[1,2-a]pyrimidin-6-carboxamide] | 0.051 to 0.1 | < 0.05 | > 101 | –
CC(C)c1ccc2nc(-c3ccc(CNC(=O)c4cnc5nccn5c4)cc3)oc2c1 [Example 3] | – | < 0.05 | > 101 | –
O=C(NCc1ccc(-c2nc3ccc(F)cc3o2)cc1)c1cnc2nccn2c1 [Example 17, N-[[4-(6-fluoro-1,3-benzoxazol-2-yl)phenyl]methyl]imidazo[1,2-a]pyrimidin-6-carboxamide] | 0.051 to 0.1 | 0.051 to 0.1 | > 101 | –
O=C(NCc1ccc(-c2nc3cc(C(=O)N4CCC4)ccc3o2)cc1)c1cnc2nccn2c1 [Example 33, N-[[4-[5-(azetidin-1-carbonyl)-1,3-benzoxazol-2-yl]phenyl]methyl]imidazo[1,2-a]pyrimidin-6-carboxamide] | < 0.05 | < 0.05 | > 101 | –
O=C(NCc1ccc(-c2nc3cc(C(=O)N4CCCC4)ccc3o2)cc1)c1cnc2nccn2c1 [Example 34, N-[[4-[5-(pyrrolidine-1-carbonyl)-1,3-benzoxazol-2-yl]phenyl]methyl]imidazo[1,2-a]pyrimidin-6-carboxamide] | < 0.05 | < 0.05 | 10 to 100 | –
O=C(NCc1ccc(-c2nc3cc(S(=O)(=O)c4ccccc4)ccc3o2)cc1)c1cnc2nccn2c1 [Example 38, N-[[4-[5-(benzenesulfonyl)-1,3-benzoxazol-2-yl]phenyl]methy]imidazo[1,2-a]pyrimidin-6-carboxamide] | < 0.05 | 0.051 to 0.1 | > 101 | –
O=C(NCc1ccc(-c2nc3cc(-c4ccccc4)ccc3o2)cc1)c1cnc2nccn2c1 [Example 56, N-[[4-(5-phenyl-1,3-benzoxazol-2-yl)phenyl]methyl]imidazo[1,2-a]pyrimidin-6-carboxamide] | 0.11 to 1 | – | – | –
O=C(NCc1ccc(-c2nc3ccc(Oc4ccccc4)cc3o2)cc1)c1cnc2nccn2c1 [Example 57, N-[[4-(6-phenoxy-1,3-benzoxazol-2-yl)phenyl]methyl]imidazo[1,2-a]pyrimidin-6-carboxamide] | > 1 | – | – | –
O=C(NCc1ccc(-c2nc3ccc(Oc4cccnc4)cc3o2)cc1)c1cnc2nccn2c1 [Example 58, N-[[4-[6-(3-pyridyloxy)-1,3-benzoxazol-2-yl]phenyl]methyl]imidazo[1,2-a]pyrimidin-6-carboxamide] | < 0.05 | – | – | –
O=C(NCc1ccc(-c2nc3ccc(-c4ccccc4)cc3o2)cc1)c1cnc2nccn2c1 [Example 59, N-[[4-(6-phenyl-1,3-benzoxazol-2-yl)phenyl]methyl]imidazo[1,2-a]pyrimidin-6-carboxamide] | > 1 | – | – | –
O=C(NCc1ccc(-c2nc3ccc(Cl)nc3o2)cc1)c1cnc2nccn2c1 [Example 60, N-[[4-(5-chlorooxazolo[5,4-b]pyridin-2-yl)phenyl]methyl]imidazo[1,2-a]pyrimidin-6-carboxamide] | < 0.05 | – | – | –
Cc1ccc2nc(-c3ccc(CNC(=O)c4ccc5nccn5c4)cc3)oc2c1 [Example 61, N-[[4-(6-methyl-1,3-benzoxazol-2-yl)phenyl]methyl]imidazo[1,2-a]pyridin-6-carboxamide] | 0.11 to 1 | – | – | –
O=C(NCc1ccc(-c2nc3cnc(Cl)cc3o2)cc1)c1cnc2nccn2c1 [Example 62] | 0.051 to 0.1 | – | – | –
O=C(NCc1ccc(-c2nc3ccc(Cl)cc3o2)cn1)c1cnc2nccn2c1 [Example 63, N-[[5-(6-chloro-1,3-benzoxazol-2-yl)-2-pyridyl]methyl]imidazo[1,2-a]pyrimidin-6-carboxamide] | < 0.05 | – | – | –
Cc1ccc2nc(-c3ccc(C(C)NC(=O)c4cnc5nccn5c4)cc3)oc2c1 (stereo not shown) [Example 64, N-[1-[4-(6-methyl-1,3-benzooxazol-2-yl)phenyl]ethyl]imidazo[1,2-a]pyrimidin-6-carboxamide] | > 1 | – | – | –

Further lines, with some results ahead:

IC50 (NamPT) [µM] | EC50 [1] [µM] | EC50 [2] [µM] | SMILES | % TGI (Tumor Growth inhibition) [3] [%]
< 0.05 | < 0.05 | > 101 | Cc1ccc2oc(-c3ccc(CNC(=O)c4cnc5nccn5c4)cc3)nc2c1 [Example 6, N-[[4-(5-methyl-1,3-benzoxazol-2-yl)phenyl]methyl]imidazo[1,2-a]pyrimidin-6-carboxamide] | –
< 0.05 | < 0.05 | > 101 | CS(=O)(=O)c1ccc2oc(-c3ccc(CNC(=O)c4cnc5nccn5c4)cc3)nc2c1 [Example 9, N-[[4-(5-methylsulfonyl-1,3-benzoxazol-2-yl)phenyl]methyl]imidazo[1,2-a]pyrimidin-6-carboxamide] | –
< 0.05 | – | – | Cc1cc2nc(-c3ccc(CNC(=O)c4cnc5nccn5c4)cc3)oc2cc1F [Example 11, N-[[4-(6-fluoro-5-methyl-1,3-benzoxazol-2-yl)phenyl]methyl]imidazo[1,2-a]pyrimidin-6-carboxamide] | 82
< 0.05 | 0.051 to 0.1 | > 101 | O=C(NCc1ccc(-c2nc3ccc(C(F)(F)F)cc3o2)cc1)c1cnc2nccn2c1 [Example 19, N-[[4-[6-(trifluoromethyl)-1,3-benzoxazol-2-yl]phenyl]methyl]imidazo[1,2-a]pyrimidin-6-carboxamide] | –
< 0.05 | 0.051 to 0.1 | > 101 | COc1ccc2nc(-c3ccc(CNC(=O)c4cnc5nccn5c4)cc3)oc2c1 [Example 22, N-[[4-(6-methoxy-1,3-benzoxazol-2-yl)phenyl]methyl]imidazo[1,2-a]pyrimidin-6-carboxamide] | –
< 0.05 | < 0.05 | > 101 | CCNC(=O)c1ccc2oc(-c3ccc(CNC(=O)c4cnc5nccn5c4)cc3)nc2c1 [Example 31, N-ethyl-2-[4-[(imidazo[1,2-a]pyrimidin-6-carbonxylamino)methyl]phenyl]-1,3-benzoxazol-5-carboxamide] | –
< 0.05 | < 0.05 | 10 to 100 | CN(C)C(=O)c1ccc2oc(-c3ccc(CNC(=O)c4cnc5nccn5c4)cc3)nc2c1 [Example 32, 2-[4-[(imidazo[1,2-a]pyrimidin-6-carbonylamino)methyl]phenyl]-N,N-dimethyl-1,3-benzoxazol-5-carboxamide] | –
